Some results are limits rather than exact numbers.

GLP1R, sequence (P43220 24-463): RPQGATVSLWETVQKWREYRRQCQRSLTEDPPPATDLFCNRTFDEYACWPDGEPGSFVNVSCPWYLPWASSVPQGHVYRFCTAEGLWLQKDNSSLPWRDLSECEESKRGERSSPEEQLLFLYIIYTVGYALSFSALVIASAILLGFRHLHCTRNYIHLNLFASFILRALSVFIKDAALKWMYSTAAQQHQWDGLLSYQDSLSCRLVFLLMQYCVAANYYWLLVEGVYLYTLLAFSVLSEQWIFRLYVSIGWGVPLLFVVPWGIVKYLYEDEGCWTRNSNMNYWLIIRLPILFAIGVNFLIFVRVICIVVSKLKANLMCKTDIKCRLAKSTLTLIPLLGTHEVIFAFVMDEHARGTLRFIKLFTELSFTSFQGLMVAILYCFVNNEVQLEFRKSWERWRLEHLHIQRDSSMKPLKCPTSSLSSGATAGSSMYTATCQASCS

The experiment concerns the target GLP1R (Homo sapiens, UniProt P43220). The experiment can be described thus: GLP1R cAMP HTRF assay, HEK293/GLP-1R/CRE/Luc (HEK293T cells). Conditions: read-out: EC50. It counts as cell-based. The method, then:
GLP-1R-mediated agonist activity was determined with a cell-based functional assay utilizing an HTRF (Homogeneous Time-Resolved Fluorescence) cAMP detection kit (cAMP Dynamic 2 Assay Kit; CisBio cat #62AM4PEC) that measures cAMP levels in the cell. The method is a competitive immunoassay between native cAMP produced by the cells and exogenous cAMP labeled with the dye d2. The tracer binding is visualized by a mAb anti-cAMP labeled with Cryptate. The specific signal (i.e., energy transfer) is inversely proportional to the concentration of cAMP in either standard or experimental sample.
A cell line stably expressing the receptor was isolated.
Varying concentrations of each compound to be tested (in DMSO) were diluted in DMSO to obtain 200× compound working solution first and then 50 nl compounds were added to a white 384-well assay plate (Greiner 784075) with ECHO. The final DMSO concentration was 0.5%. The compound concentration range may be adjusted at any time.
Cells were removed from cryopreservation, re-suspended in 5 mL of Dulbecco's Phosphate Buffered Saline (DPBS-Sigma Cat # D8537) and centrifuged at 900 g for 5 min at 22° C. The cell pellet was then re-suspended in 1 mL of assay buffer [DPBS with 500 μM IBMX (Sigma #15879) and 0.1% BSA (Sigma # A1933). IBMX and BSA were freshly added on the day of assay]. A 10 μL sample of the cell suspension was counted on an Invitrogen Countess II to determine cell viability and cell count per mL. The remaining cell suspension was then adjusted with assay buffer to deliver 1000 viable cells per well using a Matrix Combi Multidrop reagent dispenser. 10 μL cell suspensions were added to each well of the assay plate which already contains compound. The plate was sealed and incubated at 37° C. with 5% CO2 for 30 minutes.
Following the 30 minute incubation, 5 μL of labeled d2 cAMP and 5 μL of anti-cAMP antibody (both diluted 1:20 in cell lysis buffer; as described in the manufacturer's assay protocol) were added to each well of the assay plate. The plates w ere then incubated at room temperature and after 60 minutes, changes in the HTRF signal were read with an Envision multi-label plate reader using excitation of 330 nm and emissions of 615 and 665 nm. Raw data were converted to nM cAMP by interpolation from a cAMP standard curve (as described in the manufacturer's assay protocol) and the percent effect was determined relative to a saturating concentration of the full agonist GLP-17-37 (10 nM) included on each plate. EC50 determinations were made from agonist dose-response curves analyzed with a curve fitting program using a 4-parameter logistic dose response equation.
3) Anti-cAMP antibody-cryptate working solution preparation • c) The lyophilisate was reconstituted with appropriate amount of distilled water according to manufacturer's instruction to make working stock which can be aliquoted and frozen (−20° C.). • d) The working stock solution was diluted 1:20 in the conjugate and lysis buffer before use. Procedures Procedures for Cell Suspension Preparation • 1. Frozen cells were thawed very briefly in a 37° C. water bath under sterile conditions until just before ice completely melt (for about 1 minute) with a continuous agitation. Caution was taken because a longer incubation could result in cell death. • 2. DMSO was removed from the media by carefully transferring thawed cells to a sterile 15/50 mL tube, filling a tube with 10-50 mL of complete media pre-warmed to 37° C., and allowing the cells to sit 5 min before centrifuging at 900 rpm for 5 minutes for cell collection. • 3. The cells were resuspended with assay buffer. • 4. For stable GLP1-R assay, the optimized cell density is 1000 cells/well. Caution was taken because cell density optimization was crucial and needed to be optimized in different laboratories. The level of cAMP produced by the cells must fall within the linear range of the standard curve.
Background: Time-resolved FRET reads energy transfer from a long-lived donor to a nearby acceptor.
Broadly, the EC50 is the concentration that produces a half-maximal response. Turning to `O=C(O)c1ccc2nc(CN3CCCN(c4cccc(OCc5ccc(Cl)cc5F)n4)C(=O)C3)n(C[C@@H]3CCO3)c2c1` [Compound 56, (S)-2-((4-(6-((4-chloro-2-fluorobenzyl)oxy)pyridin-2-yl)-3-oxo-1,4-diazepan-1-yl)methyl)-1-(oxetan-2-ylmethyl)-1H-benzo[d]imidazole-6-carboxylic acid], the EC50 is over 1 µM.
Take `O=C(O)c1ccc2nc(CN3CCC(=O)N(c4cccc(OCc5ccc(Cl)cc5F)n4)CC3)n(C[C@@H]3CCO3)c2c1` [Compound 57]: the EC50 was at most 1 µM.
For `O=C(O)c1ccc2nc(CN3CC=C(c4cc5nc[nH]c5c(OCc5ccc(Cl)cc5F)n4)CC3)n(C[C@@H]3CCO3)c2c1` [Compound 58, (S)-2-((4-(4-((4-chloro-2-fluorobenzyl)oxy)-3H-imidazo[4,5-c]pyridin-6-yl)-3,6-dihydropyridin-1(2H)-yl)methyl)-1-(oxetan-2-ylmethyl)-1H-benzo[d]imidazole-6-carboxylic acid] the value was over 1 µM; for `O=C(O)c1ccc2nc(CN3CC=C(c4ccc5c(n4)N(Cc4ccc(Cl)cc4F)CCCO5)CC3)n(C[C@@H]3CCO3)c2c1` [Compound 59, (S)-2-((4-(5-(4-chloro-2-fluorobenzyl)-2,3,4,5-tetrahydropyrido[3,2-b][1,4]oxazepin-7-yl)-3,6-dihydropyridin-1(2H)-yl)methyl)-1-(oxetan-2-ylmethyl)-1H-benzo[d]imidazole-6-carboxylic add], over 1 µM.
Take `O=C(O)c1ccc2nc(CN3CC=C(c4cccc(OC5CCCc6cc(Cl)ccc65)n4)CC3)n(C[C@@H]3CCO3)c2c1` (stereo partly drawn) [Compound 60, 2-((6-((6-chloro-1,2,3,4-tetrahydronaphthalen-1-yl)oxy)-3′,6′-dihydro-[2,4′-bipyridin]-1′(2′H)-yl)methyl)-1-(((S)-oxetan-2-yl)methyl)-1H-benzo[d]imidazole-6-carboxylic acid]: the EC50 is at most 1 µM.
Consider `O=C(O)c1ccc2nc(CN3CC=C(c4cccc(NC5CCOc6cc(Cl)ccc65)n4)CC3)n(C[C@@H]3CCO3)c2c1` (stereo partly drawn) [Compound 61, 2-((4-(6-(7-chlorochroman-4-ylamino)pyridin-2-yl)-5,6-dihydropyridin-1(2H)-yl)methyl)-1-((S)-oxetan-2-ylmethyl)-1H-benzo[d]imidazole-6-carboxylic acid], for which the EC50 is at most 1 µM.
In the case of `O=c1[nH]c(-c2ccc3nc(CN4CC=C(c5cccc(OCc6ccc(Cl)cc6F)n5)CC4)n(C[C@@H]4CCO4)c3c2)no1` [Compound 62, (S)-3-(2-((4-(6-(4-chloro-2-fluorobenzyloxy)pyridin-2-yl)-5,6-dihydropyridin-1(2H)-yl)methyl)-1-(oxetan-2-ylmethyl)-1H-benzo[d]imidazol-6-yl)-1,2,4-oxadiazol-5(4H)-one], the EC50 is at most 0.15 µM.
The figure for `O=C(O)c1ccc2nc(CN3CC=C(c4ccc(F)c(OCc5ccc(Cl)cc5F)c4F)CC3)n(C[C@@H]3CCO3)c2c1` [Compound 63, (S)-2-((4-(3-(4-chloro-2-fluorobenzyloxy)-2,4-difluorophenyl)-5,6-dihydropyridin-1(2H)-yl)methyl)-1-(oxetan-2-ylmethyl)-1H-benzo[d]imidazole-6-carboxylic acid] is at most 1 µM; for `Cc1ccc(C2=CCN(Cc3nc4ccc(C(=O)O)cc4n3C[C@@H]3CCO3)CC2)cc1OCc1ccc(Cl)cc1F` [Compound 64, (S)-2-((4-(3-((4-chloro-2-fluorobenzyl)oxy)-4-methylphenyl)-3,6-dihydropyridin-1(2H)-yl)methyl)-1-(oxetan-2-ylmethyl)-1H-benzo[d]imidazole-6-carboxylic acid] it is at most 0.15 µM; for `N#CC1(c2cccc(OCc3ccc(Cl)cc3F)n2)CCN(Cc2nc3ccc(C(=O)O)cc3n2C[C@@H]2CCO2)CC1` [Compound 66, (S)-2-((4-(6-((4-chloro-2-fluorobenzyl)oxy)pyridin-2-yl)-4-cyanopiperidin-1-yl)methyl)-1-(oxetan-2-ylmethyl)-1H-benzo[d]imidazole-6-carboxylic acid] it is over 1 µM.
For `O=C(O)c1ccc2nc(CN3CCC(F)(c4cccc(OCc5ccc(Cl)cc5F)n4)CC3)n(C[C@@H]3CCO3)c2c1` [Compound 67, (S)-2-((4-(6-(4-chloro-2-fluorobenzyloxy)pyridin-2-yl)-4-fluoropiperidin-1-yl)methyl)-1-(oxetan-2-ylmethyl)-1H-benzo[d]imidazole-6-carboxylic acid] the value was at most 0.15 µM.
For `C#Cc1ccc(COc2cccc(C3=CCN(Cc4nc5ccc(C(=O)O)cc5n4C[C@@H]4CCO4)CC3)n2)c(F)c1` [Compound 68, (S)-2-((6-((4-ethynyl-2-fluorobenzyl)oxy)-3‘f’-dihydro-[2,4′-bipyridin]-1′(2′H)-yl)methyl)-1-(oxetan-2-ylmethyl)-1H-benzo[d]imidazole-6-carboxylic acid] the value was at most 0.015 µM.
`O=C(O)c1ccc2nc(CN3CC=C(c4cccc(OC5CCOc6cc(Cl)ccc65)n4)CC3)n(C[C@@H]3CCO3)c2c1` (stereo partly drawn) [Compound 69, 2-((6-((7-chlorochroman-4-yl)oxy)-5′,6′-dihydro-[2,4′-bipyridin]-1′(2′H)-yl)methyl)-1-((S)-oxetan-2-ylmethyl)-1H-benzo[d]imidazole-6-carboxylic add]: the EC50 was at most 1 µM.
The figure for `CC(Oc1cccc(C2=CCN(Cc3nc4ccc(C(=O)O)cc4n3C[C@@H]3CCO3)CC2)n1)c1ccc(Cl)cc1F` (some centres unmarked) [Compound 70] is at most 0.015 µM; for `N#Cc1ccc2nc(CN3CC=C(c4cccc(OCc5ccc(Cl)cc5F)n4)CC3)n(C[C@@H]3CCO3)c2c1` [Compound 71, (S)-2-((4-(6-(4-chloro-2-fluorobenzyloxy)pyridin-2-yl)-5,6-dihydropyridin-1(2H)-yl)methyl)-1-(oxetan-2-ylmethyl)-1H-benzo[d]imidazole-6-carbonitrile] it is over 1 µM.
The figure for `O=C(O)c1ccc2nc(CN3CC=C(c4cccc(OCc5ccc(Cl)cc5F)n4)CC3)n(Cc3ncco3)c2c1` [Compound 72, 2-((6-((4-chloro-2-fluorobenzyl)oxy)-3′,6′-dihydro-[2,4′-bipyridin]-1′(2′H)-yl)methyl)-1-(oxazol-2-ylmethyl)-1H-benzo[d]imidazole-6-carboxyli acid] is at most 0.015 µM.
The figure for `O=C(O)c1ccc2nc(CN3CC=C(c4cccc(OCc5ccccc5)n4)CC3)n(C[C@@H]3CCO3)c2c1` [Compound 73, (S)-2-((6-(benzyloxy)-5′,6′-dihydro-[2,4′-bipyridin]-1′(2′H)-yl)methyl)-1-(oxetan-2-ylmethyl)-1H-benzo[d]imidazole-6-carboxylic add] is at most 0.15 µM.
For `O=C(O)c1ccc2nc(CN3CC=C(c4cc5cn[nH]c5c(OCc5ccc(Cl)cc5F)n4)CC3)n(C[C@@H]3CCO3)c2c1` [Compound 103, (S)-2-((4-(7-((4-chloro-2-fluorobenzyl)oxy)-1H-pyrazolo[3H-c]pyridin-5-yl)-3,6-dihydropyridin-1(2H)-yl)methyl)-1-(oxetan-2-ylmethyl)-1H-benzo[d]imidazole-6-carboxylic add], the EC50 is at most 0.15 µM.
Regarding `O=C(O)c1ccc2nc(CN3CC=C(c4cccc(NC5CCCc6cc(Cl)ccc65)n4)CC3)n(C[C@@H]3CCO3)c2c1` (stereo partly drawn) [Compound 104, 2-((6-((6-chloro-1,2,3,4-tetrahydronaphthalen-1-yl)amino)-36′-dihydro-[2,4′-bipyridin]-1′(2′H)-yl)methyl)-1-(((S)-oxetan-2-yl)methyl)-1H-benzo[d]imidazole-6-carboxylic add], the EC50 is at most 1 µM.
The figure for `O=C(O)c1ccc2nc(CN3CCN(c4cccc(OCc5ccc(Cl)cc5F)n4)CC3=O)n(C[C@@H]3CCO3)c2c1` [Compound 106, (S)-2-((4-(6-((4-chloro-2-fluorobenzyl)oxy)pyridin-2-yl)-2-oxopiperazin-1-yl)methyl)-1-(oxetan-2-ylmethyl)-1H-benzo[d]imidazole-6-carboxylic add] is at most 0.015 µM.

Source of the values: patent US10844049B2, “GLP-1R agonists and uses thereof” (QILU REGOR THERAPEUTICS INC., priority 2018, dated 2020).
